Measured values: patent US10556907B2 (AbbVie Inc., priority 2015, dated 2020)
Counter-ions that a name gives are not always drawn.

How the values were obtained:
Assay in all cases: Method 1: intracellular Ca2+ release (FLIPR, Calcium 5) in recombinant CHO-K1 cells
Assay type in all cases: cell-based
[1] = molecular target: T1, human S1PR4 receptor (Homo sapiens, UniProt O95977); conditions: (1): determined with method 1; read-out: S1P4 EC50
T1 construct: host or cells: CHO-K1
T1 sequence (O95977 1-384): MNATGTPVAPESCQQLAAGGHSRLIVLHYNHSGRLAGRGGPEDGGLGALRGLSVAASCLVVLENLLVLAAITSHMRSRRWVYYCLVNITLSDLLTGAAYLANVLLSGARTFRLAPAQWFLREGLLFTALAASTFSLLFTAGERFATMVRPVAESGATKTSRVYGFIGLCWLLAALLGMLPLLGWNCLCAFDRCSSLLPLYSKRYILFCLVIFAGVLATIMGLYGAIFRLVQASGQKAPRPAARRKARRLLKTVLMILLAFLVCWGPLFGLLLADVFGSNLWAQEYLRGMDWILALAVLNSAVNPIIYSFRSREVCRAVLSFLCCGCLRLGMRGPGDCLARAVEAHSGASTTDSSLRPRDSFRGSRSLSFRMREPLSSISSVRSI
Method in brief: (§1)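 Cells expressing the receptor with promiscuous Gq/i5 are dye-loaded, equilibrated at room temperature and challenged with test compound while fluorescence is recorded by FLIPR. Potency is derived by nonlinear fitting after normalization to phospho-fingolimod.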

[2] = molecular target: T2, human S1PR3 receptor (Homo sapiens, UniProt Q99500); conditions: (1): determined with method 1; read-out: S1P3 EC50
T2 construct: host or cells: CHO-K1
Method in brief: as §1

[3] = molecular target: T3, human S1PR5 receptor (Homo sapiens, UniProt Q9H228); conditions: agonist potency, determined with method 1 (symbols A-D); read-out: S1P5 EC50 range
T3 construct: host or cells: CHO-K1
Method in brief: as §1

[4] = molecular target: T4, human S1PR1 receptor (Homo sapiens, UniProt P21453); conditions: (1): determined with method 1; read-out: S1P1 EC50
T4 construct: host or cells: CHO-K1
Method in brief: as §1

T2 sequence (Q99500 whole entry): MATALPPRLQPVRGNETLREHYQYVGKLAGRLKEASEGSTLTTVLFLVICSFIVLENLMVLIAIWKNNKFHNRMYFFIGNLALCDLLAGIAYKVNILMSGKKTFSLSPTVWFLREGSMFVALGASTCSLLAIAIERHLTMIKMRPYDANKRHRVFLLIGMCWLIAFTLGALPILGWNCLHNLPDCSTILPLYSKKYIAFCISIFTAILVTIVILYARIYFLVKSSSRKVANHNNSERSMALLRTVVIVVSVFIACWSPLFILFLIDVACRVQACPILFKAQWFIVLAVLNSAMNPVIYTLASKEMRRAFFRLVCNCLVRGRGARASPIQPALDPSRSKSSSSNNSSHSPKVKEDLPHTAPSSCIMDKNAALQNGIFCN
T4 sequence (P21453 whole entry): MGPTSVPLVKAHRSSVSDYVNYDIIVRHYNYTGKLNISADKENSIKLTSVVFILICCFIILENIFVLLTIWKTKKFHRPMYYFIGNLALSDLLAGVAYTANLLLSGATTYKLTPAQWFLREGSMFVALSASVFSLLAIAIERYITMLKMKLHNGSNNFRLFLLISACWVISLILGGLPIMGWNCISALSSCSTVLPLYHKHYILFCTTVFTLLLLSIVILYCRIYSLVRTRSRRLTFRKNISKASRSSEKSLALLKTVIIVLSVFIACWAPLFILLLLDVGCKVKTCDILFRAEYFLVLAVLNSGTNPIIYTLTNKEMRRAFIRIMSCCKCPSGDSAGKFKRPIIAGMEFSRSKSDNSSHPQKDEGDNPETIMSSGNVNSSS
T3 sequence (Q9H228 whole entry): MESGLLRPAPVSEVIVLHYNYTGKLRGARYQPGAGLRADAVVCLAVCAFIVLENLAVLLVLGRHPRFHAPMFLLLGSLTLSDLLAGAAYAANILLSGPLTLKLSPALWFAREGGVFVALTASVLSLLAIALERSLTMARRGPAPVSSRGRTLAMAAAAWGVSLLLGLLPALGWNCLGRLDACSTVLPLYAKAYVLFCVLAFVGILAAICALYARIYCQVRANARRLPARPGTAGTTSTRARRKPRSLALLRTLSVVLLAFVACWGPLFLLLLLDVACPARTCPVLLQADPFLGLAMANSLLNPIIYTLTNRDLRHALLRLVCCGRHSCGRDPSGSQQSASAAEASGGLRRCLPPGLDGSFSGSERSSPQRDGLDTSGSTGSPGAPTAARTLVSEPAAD

SMILES | EC50 [1] | EC50 [2] | EC50 [3] | EC50 [4]
CC(C)(C)c1ccc(COc2ccc(-c3ccc4c(n3)CCN(CCC(=O)O)C4)cc2)cc1 [Compound 156, 3-(2-(4-((4-(tert-butyl)benzyl)oxy)phenyl)-7,8-dihydro-1,6-naphthyridin-6(5H)-yl)propanoic acid] | > 1 µM | > 1 µM | < 0.01 µM | > 1 µM
O=C(O)CCN1CCc2nc(-c3ccc(OCc4cccc(C(F)(F)F)c4)cc3)ccc2C1 [Compound 157, 3-(2-(4-((3-trifluoromethylbenzyl)oxy)phenyl)-7,8-dihydro-1,6-naphthyridin-6(5H)-yl)propanoic acid] | > 1 µM | > 1 µM | < 0.01 µM | > 1 µM
CC(CC(=O)O)N1CCc2nc(-c3ccc(OCc4ccc(Cl)c(Cl)c4)cc3)ncc2C1 (stereo not shown) [Compound 45, 3-(2-(4-((3,4-dichlorobenzyl)oxy)phenyl)-7,8-dihydropyrido[4,3-d]pyrimidin-6(5H)-yl)butanoic acid] | > 1 µM | > 1 µM | 0.01 to 0.1 µM | > 1 µM
O=C(O)CCN1CCc2nc(-c3ccc(OCc4cccc(C(F)F)c4)cc3)ccc2C1 [Compound 159, 3-(2-(4-((3-difluoromethylbenzyl)oxy)phenyl)-7,8-dihydro-1,6-naphthyridin-6(5H)-yl)propanoic acid] | > 1 µM | > 1 µM | < 0.01 µM | > 1 µM
Cc1cc(-c2ccc3c(n2)CCN(CCCC(=O)O)C3)ccc1OCc1ccccc1 [Compound 114, 4-(2-(4-(benzyloxy)-3-methylphenyl)-7,8-dihydro-1,6-naphthyridin-6(5H)-yl)butanoic acid] | > 1 µM | > 1 µM | < 0.01 µM | > 1 µM
Cc1ccc(COc2ccc(-c3ncc4c(n3)CCN(CCC(=O)O)C4)cc2)cc1C(F)(F)F [Compound 89, 3-(2-(4-((4-methyl-3-(trifluoromethyl)benzyl)oxy)phenyl)-7,8-dihydropyrido[4,3-d]pyrimidin-6(5H)-yl)propanoic acid] | > 1 µM | > 1 µM | < 0.01 µM | > 1 µM
Cc1ccccc1C#Cc1ccc2c(n1)CCN(C1CC(C(=O)O)C1)C2 (stereo not shown) [Compound 121, 3-(2-(o-tolylethynyl)-7,8-dihydro-1,6-naphthyridin-6(5H)-yl)cyclobutanecarboxylic acid] | > 1 µM | > 1 µM | 1 to 10 µM | > 1 µM
O=C(O)C1CC(N2CCc3nc(Cc4c(F)cccc4F)ncc3C2)C1 (stereo not shown) [Compound 53, 3-(2-(2,6-difluorobenzyl)-7,8-dihydropyrido[4,3-d]pyrimidin-6(5H)-yl)cyclobutanecarboxylic acid] | > 1 µM | > 1 µM | 1 to 10 µM | > 1 µM
O=C(O)CN1CCc2nc(Cc3ccccc3)ncc2C1 [Compound 24, 2-(2-benzyl-7,8-dihydropyrido[4,3-d]pyrimidin-6(5H)-yl)acetic acid] | > 1 µM | > 1 µM | 1 to 10 µM | > 1 µM
CC(CN1CCc2nc(-c3ccc(OCc4cccc(F)c4)cc3)ncc2C1)C(=O)O (stereo not shown) [Compound 8, 3-(2-(4-((3-fluorobenzyl)oxy)phenyl)-7,8-dihydropyrido[4,3-d]pyrimidin-6(5H)-yl)-2-methylpropanoic acid] | > 1 µM | > 1 µM | < 0.01 µM | > 1 µM
O=C(O)C1CC(N2CCc3nc(C#Cc4ccc(F)cc4)ccc3C2)C1 (stereo not shown) [Compound 123, 3-(2-((4-fluorophenyl)ethynyl)-7,8-dihydro-1,6-naphthyridin-6(5H)-yl)cyclobutanecarboxylic acid] | > 1 µM | > 1 µM | 1 to 10 µM | > 1 µM
O=C(O)CCN1CCc2nc(-c3ccc(OCc4ccc(C(F)F)cc4)cc3)ccc2C1 [Compound 166, 3-(2-(4-((4-difluoromethylbenzyl)oxy)phenyl)-7,8-dihydro-1,6-naphthyridin-6(5H)-yl)propanoic acid] | > 1 µM | > 1 µM | < 0.01 µM | > 1 µM
Cc1cc(OC(F)(F)F)ccc1COc1ccc(-c2ccc3c(n2)CCN(CCC(=O)O)C3)cc1 [Compound 161, 3-(2-(4-((2-methyl-4-(trifluoromethoxy)benzyl)oxy)phenyl)-7,8-dihydro-1,6-naphthyridin-6(5H)-yl)propanoic acid] | > 1 µM | > 1 µM | < 0.01 µM | > 1 µM
O=C(O)CN1CCc2nc(-c3ccc(OCc4ccc(Cl)c(Cl)c4)cc3)ncc2C1 [Compound 30, 2-(2-(4-((3,4-dichlorobenzyl)oxy)phenyl)-7,8-dihydropyrido[4,3-d]pyrimidin-6(5H)-yl)acetic acid] | > 1 µM | > 1 µM | 0.01 to 0.1 µM | > 1 µM
O=C(O)C1CC(N2CCc3nc(C#Cc4ccccc4Cl)ncc3C2)C1 (stereo not shown) [Compound 60, 3-(2-((2-chlorophenyl)ethynyl)-7,8-dihydropyrido[4,3-d]pyrimidin-6(5H)-yl)cyclobutanecarboxylic acid] | > 1 µM | > 1 µM | 1 to 10 µM | > 1 µM
CC(CN1CCc2nc(-c3ccc(OCc4cc(Cl)cc(Cl)c4)cc3)ncc2C1)C(=O)O (single isomer, unassigned) [Compound 19, 3-(2-(4-((3,5-dichlorobenzyl)oxy)phenyl)-7,8-dihydropyrido[4,3-d]pyrimidin-6(5H)-yl)-2-methylpropanoic acid] | > 1 µM | > 1 µM | < 0.01 µM | > 1 µM
O=C(O)CN1CCc2nc(-c3ccc(OCc4cccc(Cl)c4)cc3)ncc2C1 [Compound 32, 2-(2-(4-((3-chlorobenzyl)oxy)phenyl)-7,8-dihydropyrido[4,3-d]pyrimidin-6(5H)-yl)acetic acid] | > 1 µM | > 1 µM | 0.1 to 1 µM | > 1 µM

Now from value to compound:

EC50 [1] | EC50 [2] | EC50 [3] | EC50 [4] | SMILES
> 1 µM | > 1 µM | < 0.01 µM | > 1 µM | C[C@H](CC(=O)O)CN1CCc2nc(-c3ccc(CCc4ccc(Cl)cc4)cc3)ncc2C1 [Compound 237, (R)-4-(2-(4-(4-chlorophenethyl)phenyl)-7,8-dihydropyrido[4,3-d]pyrimidin-6(5H)-yl)-3-methylbutanoic acid]
> 1 µM | > 1 µM | < 0.01 µM | > 1 µM | O=C(O)CCN1CCc2cc(-c3ccc(OCc4cccc(Cl)c4)cc3)ncc2C1 [Compound 175, 3-(6-(4-((3-chlorobenzyl)oxy)phenyl)-3,4-dihydro-2,7-naphthyridin-2(1H)-yl)propanoic acid]
> 1 µM | > 1 µM | < 0.01 µM | > 1 µM | Cc1cc(-c2ccc3c(n2)CCN(CCC(=O)O)C3)ccc1OCc1ccc(C(F)(F)F)cc1 [Compound 167, 3-(2-(3-methyl-4-((4-(trifluoromethyl)benzyl)oxy)phenyl)-7,8-dihydro-1,6-naphthyridin-6(5H)-yl)propanoic acid]
> 1 µM | > 1 µM | < 0.01 µM | > 1 µM | CC(CC(=O)O)CN1CCc2nc(-c3ccc(C(F)Cc4ccc(Cl)cc4F)cc3)ncc2C1 (stereo not shown) [Compound 253]
> 1 µM | > 1 µM | 0.1 to 1 µM | > 1 µM | O=C(O)CCN1CCc2cc(OCc3c(Cl)cccc3Cl)ncc2C1 [Compound 219, 3-(6-((2,6-dichlorobenzyl)oxy)-3,4-dihydro-2,7-naphthyridin-2(1H)-yl)propanoic acid hydrochloride]
> 1 µM | > 1 µM | 0.01 to 0.1 µM | > 1 µM | CC(CC(=O)O)CN1CCc2nc(-c3ccc(OCc4ccc(C(F)(F)F)cc4)cc3F)ncc2C1 (stereo not shown) [Compound 263, 4-[2-[2-fluoro-4-[[4-(trifluoromethyl)phenyl]methoxy]phenyl]-7,8-dihydro-5H-pyrido[4,3-d]pyrimidin-6-yl]-3-methyl-butanoic acid 2,2,2-trifluoroacetic acid salt]
> 1 µM | > 1 µM | < 0.01 µM | > 1 µM | CC(CC(=O)O)CN1CCc2nc(-c3ccc(OCc4ccccc4C(F)(F)F)cc3)ncc2C1 (stereo not shown) [Compound 254, 3-methyl-4-[2-[4-[[2-(trifluoromethyl)phenyl]methoxy]phenyl]-7,8-dihydro-5H-pyrido[4,3-d]pyrimidin-6-yl]butanoic acid 2,2,2-trifluoroacetic acid salt]
> 1 µM | > 1 µM | < 0.01 µM | > 1 µM | CC(CC(=O)O)CN1CCc2nc(-c3ccc(OCc4ccc(Cl)cc4)cc3)ncc2C1 (single isomer, unassigned; (+)) [Compound 212, (+)-4-(2-(4-((4-chlorobenzyl)oxy)phenyl)-7,8-dihydropyrido[4,3-d]pyrimidin-6(5H)-yl)-3-methylbutanoic acid]
